Assay results reported in the supplement of paper PMC6580486.

Tests used:
PCB490-5 = system: PCB490-5 (human epithelioid sarcoma primary culture)
Method: (§1)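 Roche open-access kinase inhibitor screen (223 compounds) on human epithelioid sarcoma primary cultures from three spatially distinct regions of tumor PCB490. 384-well plates, 72 h, CellTiter-Glo viability; IC50 by Hill curve fit. 100000 nM = no IC50 reached. Compound ids carry a plate-well prefix, which is stripped.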

PCB490-4 = system: PCB490-4 (human epithelioid sarcoma primary culture)
Method: as §1

PCB490-3 = system: PCB490-3 (human epithelioid sarcoma primary culture)
Method: as §1

SMILES	IC50 cell viability (PCB490-5) [µM]	IC50 cell viability (PCB490-4) [µM]	IC50 cell viability (PCB490-3) [µM]
Cn1cc(C2=C(c3cccc(Br)c3)C(=O)NC2=O)c2ccccc21	> 100	> 100	> 100
CC(C)c1[nH]nc2c1N=C(c1ccccc1Cl)c1cc([N+](=O)[O-])ccc1N2	> 100	> 100	> 100
Cn1cc(C2=C(c3c4n(c5ccccc35)CCCCC4)C(=O)NC2=O)c2ccccc21	> 100	> 100	> 100
COc1cccc(C2=C(c3cn(C)c4cc(F)ccc34)C(=O)NC2=O)c1	> 100	> 100	> 100
Cn1cc(C2=C(c3cccnc3)C(=O)NC2=O)c2ccccc21	> 100	> 100	> 100
COc1ccc(N2Cc3cnc(Nc4ccccc4)nc3N([C@@H]3CC[C@@H](O)C3)C2=O)cc1	2.16	1.79	2.59
Cn1cc(C2=C(c3cn(C)c4ccccc34)C(=O)NC2=O)c2ccccc21	> 100	> 100	> 100
COc1ccc(CCN=C2NC(=O)/C(=C/c3ccc4ncccc4c3)S2)cc1	> 100	> 100	> 100
Nc1c(C(=O)c2cccc(-c3ccncc3)c2)cnn1-c1ccc(F)cc1	> 100	> 100	> 100
O=C1NC(=NCCc2ccc(Br)cc2)S/C1=C\c1ccc2ncccc2c1	> 100	> 100	> 100
CS(=O)(=O)N1CCC(Nc2ncc(C(=O)c3c(F)cccc3F)c(N)n2)CC1	> 100	> 100	> 100
CS(=O)(=O)CCc1cccc(C(=O)c2cnn(-c3ccc(F)cc3)c2N)c1	> 100	> 100	> 100
COc1ccc(F)cc1C(=O)c1cnc(NC2CCN(S(C)(=O)=O)CC2)nc1N	> 100	> 100	> 100
O=C1OC(=O)C(c2c[nH]c3ccccc23)=C1c1c[nH]c2ccccc12	> 100	> 100	> 100
Cn1cc(C2=C(c3cn(C)c4cc(N)ccc34)C(=O)NC2=O)c2ccccc21	> 100	> 100	> 100
Cn1cc(C2=C(c3cn(CCCCCO)c4ccccc34)C(=O)NC2=O)c2ccccc21	> 100	> 100	> 100
Cn1c(=O)c(Oc2ccc(F)cc2F)cc2cnc(NC3CCOCC3)nc21	> 100	> 100	> 100
COc1cc[nH]c1/C=C1\C(=O)Nc2ccc(F)c(I)c21	> 100	> 100	> 100
CCCCCNC(=O)[C@@H]1CCCN2C(=O)CC[C@H](NC(=O)[C@H](Cc3ccc(OP(=O)(O)O)cc3)NC(C)=O)C(=O)N12	> 100	> 100	> 100
CNCCCn1cc(C2=C(c3cn(C)c4ccccc34)C(=O)NC2=O)c2ccccc21	> 100	> 100	> 100

SMILES	IC50 cell viability (PCB490-5) [µM]	IC50 cell viability (PCB490-4) [µM]	IC50 cell viability (PCB490-3) [µM]
O=C1NC(=N[C@@H]2C[C@H]2c2ccccc2)S/C1=C\c1ccc2ncccc2c1	> 100	> 100	> 100
Cn1cc(C2=C(c3cn(CCCN)c4ccccc34)C(=O)NC2=O)c2ccccc21	> 100	> 100	> 100
CC(C)Nc1ncc2cc(Oc3ccc(F)cc3F)c(=O)n(C)c2n1	> 100	> 100	> 100
O=c1c(Oc2ccc(F)cc2F)cc2cnc(NC3CCOCC3)nc2n1C1CC1	> 100	> 100	> 100
N#CCn1c(=O)c(Oc2ccc(F)cc2F)cc2cnc(NC3CCOCC3)nc21	> 100	> 100	> 100
COC[C@H](N=C1NC(=O)/C(=C/c2ccc3ncccc3c2)S1)c1ccccc1	> 100	> 100	> 100
Cn1cc(C2=C(c3ccc(OCC(O)CO)cc3)C(=O)NC2=O)c2ccccc21 (stereo not given)	> 100	> 100	> 100
Cn1cc(C2=C(c3cccc(NCC(O)CO)c3)C(=O)NC2=O)c2cc(Cl)ccc21 (stereo not given)	2.34	2	> 100
CO/N=C(\c1ccccc1)c1cnn(-c2ccccc2)c1N	> 100	> 100	> 100
O=[N+]([O-])c1ccc2c(c1)C(c1ccccc1Cl)=Nc1cn[nH]c1N2	> 100	> 100	> 100
COc1ccc2c(c1)C(c1ccccc1Cl)=Nc1c(n[nH]c1C)N2	> 100	> 100	> 100
Cn1cc(C2=C(c3cn(CCCCN)c4ccccc34)C(=O)NC2=O)c2ccccc21	> 100	> 100	> 100
Cn1c(=O)c(Oc2ccc(F)cc2)cc2cnc(NC3CCOCC3)nc21	> 100	> 100	> 100
CC(=O)N[C@@H](Cc1ccc(OP(=O)(O)O)cc1)C(=O)N[C@H]1CCC(=O)N2CCC[C@@H](C(=O)NCc3ccc(O)cc3)N2C1=O	> 100	> 100	> 100
Nc1c(C(=O)c2cccc(OCCN3CCOCC3)c2)cnn1-c1ccc(F)cc1	> 100	> 100	> 100
Cn1cc(C2=C(c3c4n(c5ccccc35)CCN(C(N)=S)C4)C(=O)NC2=O)c2ccccc21	> 100	> 100	> 100
O=C1NC(=NCCc2ccc(F)cc2)S/C1=C\c1ccc2ncccc2c1	> 100	> 100	> 100
C[C@H](CS(C)(=O)=O)Nc1ncc2cc(Oc3ccc(F)cc3F)c(=O)n(C)c2n1	> 100	> 100	> 100
CCc1c(C)nc2sc3c(N)ncnc3c2c1C	> 100	> 100	> 100
Nc1c(C(=O)c2cccc(OC[C@H](O)CO)c2)cnn1-c1ccc(F)cc1	> 100	> 100	> 100

SMILES	IC50 cell viability (PCB490-5) [µM]	IC50 cell viability (PCB490-4) [µM]	IC50 cell viability (PCB490-3) [µM]
COc1cccc(C2=C(c3cn(C)c4ccc(Cl)cc34)C(=O)NC2=O)c1	> 100	> 100	> 100
CS(=O)(=O)CCCn1c(=O)c(Oc2ccc(F)cc2F)cc2cnc(NC3CCOCC3)nc21	> 100	> 100	> 100
Cn1cc(C2=C(c3ccccc3[N+](=O)[O-])C(=O)NC2=O)c2ccccc21	> 100	> 100	> 100
N#Cc1c(C(=O)c2ccccc2)cnn1-c1ccccc1	> 100	> 100	> 100
CNc1ncc2cc(Oc3ccc(F)cc3F)c(=O)n(C)c2n1	> 100	> 100	> 100
COc1ccc(O)c(C(=O)c2ccc(C(=O)N[C@@H]3CCCNC[C@H]3NC(=O)c3ccncc3)cc2)c1F	> 100	> 100	> 100
CN=C1NC(=O)/C(=C/c2ccc3ncccc3c2)S1	> 100	> 100	> 100
O=C1NC(=NCCc2cccs2)S/C1=C\c1ccc2ncccc2c1	> 100	> 100	> 100
CN(C)CC#Cc1cccc(C(=O)c2cnn(-c3ccc(F)cc3)c2N)c1	> 100	> 100	> 100
COc1cccc2c1c(C1=C(c3cn(C)c4ccccc34)C(=O)NC1=O)cn2C	> 100	> 100	> 100
Cn1c(=O)c(Cc2ccccc2F)cc2cnc(NC3CCOCC3)nc21	> 100	> 100	> 100
O=c1[nH]c2nc(NC3CCOCC3)ncc2cc1Oc1ccc(F)cc1F	> 100	> 100	> 100
O=C1NC(=Nc2ccccc2)S/C1=C\c1ccc2ncccc2c1	> 100	> 100	> 100
COc1ccc(C2=C(c3cn(C)c4ccccc34)C(=O)NC2=O)cc1	> 100	> 100	> 100
Cn1c(=O)c(Oc2cccc(F)c2)cc2cnc(NC3CCOCC3)nc21	> 100	> 100	> 100
Nc1c(C(=O)c2cccc(CCC3(O)CCCC3)c2)cnn1-c1ccc(F)cc1	> 100	> 100	> 100
Cn1cc(C2=C(c3cn(CCCN=C(N)N)c4ccccc34)C(=O)NC2=O)c2ccccc21	> 100	> 100	> 100
CCOc1ccccc1CCN=C1NC(=O)/C(=C/c2ccc3ncccc3c2)S1	> 100	> 100	> 100
OCCn1c(-c2ccncc2)c(-c2ccc(F)cc2)c2ncccc21	> 100	> 100	> 100
COc1cccc(C2=C(c3c(C)n(C)c4ccccc34)C(=O)NC2=O)c1	> 100	> 100	> 100
